Measurements reported in patent publication US20120157385A1, “CYCLOSPORIN CONJUGATES” (UCL Business PLC, priority 2009, published 2012).
Values belong to the compound of their own block, whether it stands above or below them.

Legend:
[1] = system: intramitochondrial CyP-D rather than extramitochondrial CyP-A; details: for mitochondrial matrix/extramitochondrial accumulation ratio: isolated rat liver mitochondria plus recombinant CyP-A, 25° C.
cyclophilin D (CyP-D) = cyclophilin D (CyP-D) (Rattus norvegicus, UniProt P29117); test: PPIase assay, inhibition of recombinant CyP-D by cyclosporins
Sequence of cyclophilin D (CyP-D) (P29117 30-206): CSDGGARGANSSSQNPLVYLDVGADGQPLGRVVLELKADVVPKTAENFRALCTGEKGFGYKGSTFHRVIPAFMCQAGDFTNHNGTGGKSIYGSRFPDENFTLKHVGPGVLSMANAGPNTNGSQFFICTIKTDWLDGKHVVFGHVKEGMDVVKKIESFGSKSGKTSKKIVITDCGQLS

[2] = system: caspase-3 activation in B50 cells; test: Nitroprusside-induced caspase-3 activation in B50 cells (marker of CyP-A activity); format: cell-based, rat; details: 100 μM nitroprusside 40 min, assayed after 5 hr, Compound 1 at 2.5 μM
[3] = system: Permeability Transition (PT) pore; test: Ca2+-induced PT pore opening (swelling, absorbance at 540 nm) in isolated mitochondria; format: biochemical; details: read-out: concentration giving 50% inhibition of PT pore opening; isolated rat liver mitochondria, 50 μM Ca2+ infused slowly
rat hippocampal neurons = test: Oxygen and glucose deprivation (pseudo ischaemia/reperfusion) induced necrosis of hippocampal neurons; format: cell-based; details: for protection against neuron mortality (necrosis) following OGD: within 90 min, about 60% of neurons necrotic without compound
CyP-D(+) B50 cells = test: TMRE uptake (inner membrane potential) in B50 cells and CyP-D overexpressing clone; format: cell-based, rat
[4] = system: rat heart cells (ventricular cardiomyocytes); test: Oxygen and glucose deprivation / reoxygenation induced necrosis of heart cells; format: cell-based

Structure (SMILES): C/C=C/C[C@@H](C)[C@@H](O)[C@H]1C(=O)N[C@@H](CC)C(=O)N(C)C(Cc2ccc(C(=O)NCCOCCNC(=O)CC[P+](c3ccccc3)(c3ccccc3)c3ccccc3)cc2)C(=O)N(C)[C@@H](CC(C)C)C(=O)N[C@@H](C(C)C)C(=O)N(C)[C@@H](CC(C)C)C(=O)N[C@@H](C)C(=O)N[C@H](C)C(=O)N(C)[C@@H](CC(C)C)C(=O)N(C)[C@@H](CC(C)C)C(=O)N(C)[C@@H](C(C)C)C(=O)N1C (stereo partly drawn) [Compound 3, 12-(4-(((5S,8S,11S,14S,17R,20S,23S,26S,29S,32S)-32-ethyl-29-((1R,2R,E)-1-hydroxy-2-methylhex-4-enyl)-5,11,20,23-tetraisobutyl-8,26-diisopropyl-1,4,10,14,17,19,22,25,28-nonamethyl-3,6,9,12,15,18,21,24,27,30,33-undecaoxo-1,4,7,10,13,16,19,22,25,28,31-undecaazacyclotritriacontan-2-yl)methyl)phenyl)-4,12-dioxo-1,1,1-triphenyl-8-oxa-5,11-diaza-1-phosphoniadodecane]
mitochondrial matrix/extramitochondrial accumulation ratio [1]: >10 | Ki (cyclophilin D (CyP-D)): 0.006 µM

Structure (SMILES): C/C=C/C[C@@H](C)[C@@H](O)[C@H]1C(=O)N[C@@H](CC)C(=O)N(C)C(Cc2ccc(C(=O)NCCCCCCNC(=O)CCCCC[P+](c3ccccc3)(c3ccccc3)c3ccccc3)cc2)C(=O)N(C)[C@@H](CC(C)C)C(=O)N[C@@H](C(C)C)C(=O)N(C)[C@@H](CC(C)C)C(=O)N[C@@H](C)C(=O)N[C@H](C)C(=O)N(C)[C@@H](CC(C)C)C(=O)N(C)[C@@H](CC(C)C)C(=O)N(C)[C@@H](C(C)C)C(=O)N1C (stereo partly drawn) [Compound 1, (6-(6-(4-(((5S,8S,11S,14S,17R,20S,23S,26S,29S,32S)-32-ethyl-29-((1R,2R,E)-1-hydroxy-2-methylhex-4-enyl)-5,11,20,23-tetraisobutyl-8,26-diisopropyl-1,4,10,14,17,19,22,25,28-nonamethyl-3,6,9,12,15,18,21,24,27,30,33-undecaoxo-1,4,7,10,13,16,19,22,25,28,31-undecaazacyclotritriacontan-2-yl)methyl)benzamido)hexylamino)-6-oxohexyl)triphenylphosphonium]
effect on nitroprusside-induced activation of caspase-3 [2]: no significant effect | IC50 [3]: ~0.4 µM | inhibition of PT pore formation compared with inhibition of extramitochondrial CyP-A ([1]; same incubation, CyP-A activity in supernatant): considerably better | protection against neuron mortality (necrosis) following OGD (rat hippocampal neurons; 30 min OGD): approximately halved | concentration giving maximal protection against OGD-induced necrosis (rat hippocampal neurons; hippocampal neurons, 30 min OGD): > 0.8 µM | concentration for maximal restoration of TMRE uptake by CyP-D(+) cells (CyP-D(+) B50 cells; B50 clone overexpressing CyP-D about 10-fold, 50 nM TMRE): ~2.4 µM | effect on TMRE uptake by wild type cells (CyP-D(+) B50 cells; wild type B50 cells, 0.8 μM CsA, 2.4 μM Compound 1): did not affect

mitochondrial matrix/extramitochondrial accumulation ratio [1]: 4.2 | Ki (cyclophilin D (CyP-D)): 0.12 µM
Structure (SMILES): C/C=C/C[C@@H](C)[C@@H](O)[C@H]1C(=O)N[C@@H](CC)C(=O)N(C)C(Cc2ccc(C(=O)NCCCCCCNC(=O)c3ccc(-c4c5ccc(=[N+](C)C)cc-5oc5cc(N(C)C)ccc45)cc3)cc2)C(=O)N(C)[C@@H](CC(C)C)C(=O)N[C@@H](C(C)C)C(=O)N(C)[C@@H](CC(C)C)C(=O)N[C@@H](C)C(=O)N[C@H](C)C(=O)N(C)[C@@H](CC(C)C)C(=O)N(C)[C@@H](CC(C)C)C(=O)N(C)[C@@H](C(C)C)C(=O)N1C (some centres unmarked) [Compound 4]

Structure (SMILES): C/C=C/C[C@@H](C)[C@@H](O)[C@H]1C(=O)N[C@@H](CC)C(=O)N(C)CC(=O)N(C)[C@@H](CC(C)C)C(=O)N[C@@H](C(C)C)C(=O)N(C)[C@@H](CC(C)C)C(=O)N[C@@H](C)C(=O)N[C@H](C)C(=O)N(C)[C@@H](CC(C)C)C(=O)N(C)[C@@H](CC(C)C)C(=O)N(C)[C@@H](C(C)C)C(=O)N1C [CsA, Cyclosporin A]
protection against neuron mortality (necrosis) following OGD (rat hippocampal neurons; 30 min OGD): less protective | protection against OGD-induced necrosis at 0.1 μM (rat hippocampal neurons; hippocampal neurons, 0.1 μM): relatively small protection | protection against OGD-induced necrosis at higher concentrations (rat hippocampal neurons; hippocampal neurons, above 0.1 μM): reversed | maximal protection ([4]; necrosis after 3 hours of reoxygenation): 42%

mitochondrial matrix/extramitochondrial accumulation ratio [1]: >10 | Ki (cyclophilin D (CyP-D)): 0.03 µM
Structure (SMILES): CC[C@@H]1NC(=O)[C@H]([C@H](O)[C@H](C)C/C=C/C(=O)NCCOCCNC(=O)CC[P+](c2ccccc2)(c2ccccc2)c2ccccc2)N(C)C(=O)[C@H](C(C)C)N(C)C(=O)[C@H](CC(C)C)N(C)C(=O)[C@H](CC(C)C)N(C)C(=O)[C@@H](C)NC(=O)[C@H](C)NC(=O)[C@H](CC(C)C)N(C)C(=O)[C@H](C(C)C)NC(=O)[C@H](CC(C)C)N(C)C(=O)CN(C)C1=O [Compound 2, (16R,17R,E)-17-((2S,5S,11S,14S,17S,20S,23R,26S,29S,32S)-5-ethyl-11,17,26,29-tetraisobutyl-14,32-diisopropyl-1,7,10,16,20,23,25,28,31-nonamethyl-3,6,9,12,15,18,21,24,27,30,33-undecaoxo-1,4,7,10,13,16,19,22,25,28,31-undecaazacyclotritriacontan-2-yl)-17-hydroxy-16-methyl-4,12-dioxo-1,1,1-triphenyl-8-oxa-5,11-diaza-1-phosphoniaheptadec-13-ene]
necrosis during reoxygenation ([4]; 5 hours reoxygenation, in particular first 3 hours): inhibited | necrosis induced by OGD for 4 hours ([4]; before reoxygenation, with or without compound): negligible necrosis | cytoprotection at 15 nM ([4]; necrosis after 3 hours of reoxygenation, 15 nM): complete protection
